We go through 14 molecules from patent US12448433B2, “Human ApoB100 epitopes, methods and uses for modulating inflammatory responses, and treating adverse cardiovascular events, disease and atherosclerosis” (LA JOLLA INSTITUTE FOR ALLERGY AND IMMUNOLOGY, priority 2015, dated 2025).

The target in one test is DQB1*06:02. Kind of test: Peptide binding to HLA-DQ allele, competition assay. The arrangement: species or system human. From the text:
(§1) Peptide binding to MHC-II requires anchor residues in certain positions and thus can be predicted using computer algorithms. Affinity can be measured experimentally using a competition assay (1). Both are excellent screening tools. However, affinity must be measured separately for each MHC-II allele. Humans express molecules encoded in four different MHC-II loci, denominated HLA-DRB1, DRB3/4/5, DP and DQ. Allelic variation is large, and most people are heterozygous at each locus, thus expressing up to 8 relevant MHC-II alleles. CD4 T cell responses strictly require that the antigenic peptide binds to the relevant MHC-II.
(§2) To identify peptides that could potentially be used in human patients, 30 peptides were screened for binding to 26 HLA alleles by competition assay.

The next test addresses T1, DPB1*04:01 (Homo sapiens, UniProt P04440).
T1 sequence (P04440 30-258): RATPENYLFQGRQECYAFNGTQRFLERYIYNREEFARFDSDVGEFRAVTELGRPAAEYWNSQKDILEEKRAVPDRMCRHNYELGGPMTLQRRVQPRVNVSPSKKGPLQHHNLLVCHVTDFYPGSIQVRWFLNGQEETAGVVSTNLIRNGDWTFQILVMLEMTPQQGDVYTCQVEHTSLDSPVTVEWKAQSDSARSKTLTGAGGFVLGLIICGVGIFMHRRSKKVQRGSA
T1 sequence (P20036 29-260 partner): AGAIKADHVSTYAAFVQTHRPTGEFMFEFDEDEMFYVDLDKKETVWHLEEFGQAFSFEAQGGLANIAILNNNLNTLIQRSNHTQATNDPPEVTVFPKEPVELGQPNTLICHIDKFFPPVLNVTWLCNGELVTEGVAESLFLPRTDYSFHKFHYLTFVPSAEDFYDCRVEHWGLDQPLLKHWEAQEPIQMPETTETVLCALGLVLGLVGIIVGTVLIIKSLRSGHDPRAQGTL
Kind of test: Peptide binding to HLA-DP allele, competition assay.
Source text: as §1, §2

Another test deals with DPB1*04:02. Described as above. Also noted: species or system human.
Source text: as §1, §2

The next test addresses DPB1*05:01. Described as above. The arrangement: species or system human.
Source text: as §1, §2

A further test has as its target DQB1*05:01. As to the kind of experiment: Peptide binding to HLA-DQ allele, competition assay. Also noted: species or system human.
Source text: as §1, §2

The target in another test is DPB1*14:01. Kind of test: Peptide binding to HLA-DP allele, competition assay. The arrangement: species or system human.
Source text: as §1, §2

The target of another test is DPB1*02:01. Described as above. Also noted: species or system human.
Source text: as §1, §2

No end group written: not given here.

What is called IC50 is the concentration needed to halve the response being measured. As for `CC(C)C[C@H](NC(=O)[C@H](CC(C)C)NC(=O)[C@H](CC(C)C)NC(=O)[C@H](CC(C)C)NC(=O)[C@H](C)NC(=O)[C@@H]1CCCN1C(=O)[C@H](CC(C)C)NC(=O)[C@H](C)NC(=O)[C@H](CC(C)C)NC(=O)[C@H](CC(C)C)NC(=O)[C@H](C)NC(=O)[C@H](CC(C)C)NC(=O)[C@H](CC(C)C)NC(=O)[C@H](C)NC(=O)[C@@H]1CCCN1)C(=O)O` [Peptide 3563.001], the IC50 at DQB1*06:02 came to 24200 nM; on DPB1*04:01 it was 14000 nM; at DPB1*04:02, 1630 nM; at DPB1*05:01, 6560 nM.

`CC[C@H](C)[C@H](NC(=O)[C@H](CC(C)C)NC(=O)[C@@H](N)CC(C)C)C(=O)N[C@@H](CC(=O)O)C(=O)N[C@H](C(=O)N[C@H](C(=O)N[C@H](C(=O)N[C@@H](Cc1ccc(O)cc1)C(=O)N[C@@H](CC(C)C)C(=O)N[C@H](C(=O)N[C@@H](C)C(=O)N[C@@H](CC(C)C)C(=O)N[C@H](C(=O)N1CCC[C@H]1C(=O)N[C@@H](CCC(=O)O)C(=O)O)[C@@H](C)CC)C(C)C)[C@@H](C)O)C(C)C)C(C)C` [Peptide 3563.0002]: the IC50 at DQB1*05:01 is 3620 nM; at DQB1*06:02, 38800 nM; on DPB1*14:01 it was 8570 nM.

As to `CC[C@H](C)[C@H](NC(=O)[C@H](Cc1ccc(O)cc1)NC(=O)[C@H](Cc1c[nH]cn1)NC(=O)[C@H](CC(C)C)NC(=O)[C@@H](N)Cc1ccccc1)C(=O)N[C@@H](Cc1ccccc1)C(=O)N[C@@H](CCSC)C(=O)N[C@@H](CCC(=O)O)C(=O)N[C@@H](CC(N)=O)C(=O)N[C@@H](C)C(=O)N[C@@H](Cc1ccccc1)C(=O)N[C@@H](CCC(=O)O)C(=O)N[C@@H](CC(C)C)C(=O)N1CCC[C@H]1C(=O)N[C@H](C(=O)O)[C@@H](C)O` [Peptide 3563.0006], the IC50 on DQB1*05:01 was found to be 39 nM; on DPB1*04:01 it was 32 nM; on DPB1*02:01, 40 nM; on DPB1*04:02, 4.4 nM.

On to `CC[C@H](C)[C@H](NC(=O)CNC(=O)[C@H](CCSC)NC(=O)[C@H](CC(N)=O)NC(=O)[C@@H](NC(=O)[C@@H](NC(=O)[C@H](Cc1ccccc1)NC(=O)[C@H](CCC(=O)O)NC(=O)[C@@H](N)C(C)C)C(C)C)[C@@H](C)O)C(=O)N[C@H](C(=O)N[C@H](C(=O)N1CCC[C@H]1C(=O)N[C@@H](CC(=O)O)C(=O)N[C@@H](Cc1ccccc1)C(=O)N[C@@H](C)C(=O)O)[C@@H](C)CC)[C@@H](C)CC` [Peptide 3563.0007], for which the IC50 at DQB1*05:01 was 228 nM; at DQB1*06:02, 8400 nM; on DPB1*02:01, 12 nM; on DPB1*14:01, 15600 nM; at DPB1*05:01, 6690 nM.

With `CC(C)C[C@H](NC(=O)[C@H](CC(C)C)NC(=O)[C@H](Cc1ccccc1)NC(=O)[C@H](CCCCN)NC(=O)[C@H](CO)NC(=O)[C@H](Cc1ccc(O)cc1)NC(=O)[C@H](CC(C)C)NC(=O)[C@@H](N)CCC(N)=O)C(=O)N[C@@H](CCCCN)C(=O)N[C@@H](C)C(=O)N[C@@H](CCC(=O)O)C(=O)N1CCC[C@H]1C(=O)N[C@@H](CC(C)C)C(=O)N[C@@H](C)C(=O)N[C@@H](Cc1ccccc1)C(=O)O` [Peptide 3563.0011], the IC50 on DQB1*05:01 turned out to be 588 nM; on DPB1*14:01, 51 nM; on DPB1*05:01, 83 nM.

`CC[C@H](C)[C@H](NC(=O)[C@H](CCC(=O)O)NC(=O)[C@H](CC(=O)O)NC(=O)[C@@H](NC(=O)[C@@H](NC(=O)[C@H](CC(N)=O)NC(=O)[C@H](C)NC(=O)[C@@H](NC(=O)[C@H](C)NC(=O)[C@@H](NC(=O)[C@H](CCCCN)NC(=O)[C@H](CC(C)C)NC(=O)[C@H](CC(=O)O)NC(=O)[C@H](Cc1c[nH]cn1)NC(=O)[C@@H](N)CC(C)C)[C@@H](C)CC)[C@@H](C)CC)[C@@H](C)CC)[C@@H](C)CC)C(=O)O` [Peptide 3563.0013]: the IC50 amounted to 691 nM at DQB1*05:01, 1830 nM at DQB1*06:02 and 6520 nM at DPB1*05:01.

As to `CC(C)C[C@H](NC(=O)[C@H](C)NC(=O)[C@H](Cc1ccccc1)NC(=O)[C@H](CO)NC(=O)[C@H](CO)NC(=O)[C@@H](NC(=O)[C@H](CCCNC(=N)N)NC(=O)[C@H](CC(C)C)NC(=O)[C@H](CCCCN)NC(=O)[C@H](CCCCN)NC(=O)[C@@H](N)Cc1ccc(O)cc1)[C@@H](C)O)C(=O)N[C@@H](CC(N)=O)C(=O)N[C@@H](CC(C)C)C(=O)N1CCC[C@H]1C(=O)N[C@H](C(=O)O)[C@@H](C)O` [Peptide 3563.0022], the IC50 at DQB1*06:02 was 2650 nM; on DPB1*04:01, 2.1 nM; on DPB1*02:01, 3.3 nM; on DPB1*04:02, 67 nM; on DPB1*14:01 it was 15 nM; on DPB1*05:01, 221 nM.

On to `CC[C@H](C)[C@H](N)C(=O)N[C@@H](CC(C)C)C(=O)N[C@@H](Cc1ccccc1)C(=O)N[C@@H](CO)C(=O)N[C@@H](Cc1ccc(O)cc1)C(=O)N[C@@H](Cc1ccccc1)C(=O)N[C@@H](CCC(N)=O)C(=O)N[C@@H](CC(=O)O)C(=O)N[C@@H](CC(C)C)C(=O)N[C@H](C(=O)N[C@H](C(=O)N[C@H](C(=O)N[C@@H](CC(C)C)C(=O)N1CCC[C@H]1C(=O)N[C@@H](Cc1ccccc1)C(=O)O)[C@@H](C)O)[C@@H](C)CC)C(C)C` [Peptide 3563.0023], for which the IC50 was 19 nM at DQB1*05:01, 12200 nM on DQB1*06:02 and 3820 nM at DPB1*05:01.

For the molecule `CC[C@H](C)[C@H](NC(=O)[C@H](CC(C)C)NC(=O)[C@H](Cc1ccc(O)cc1)NC(=O)[C@@H](NC(=O)[C@H](Cc1ccccc1)NC(=O)[C@@H](N)CCCCN)[C@@H](C)O)C(=O)N[C@@H](CC(N)=O)C(=O)N[C@@H](Cc1ccc(O)cc1)C(=O)N[C@H](C(=O)N[C@@H](CCC(N)=O)C(=O)N[C@@H](CC(=O)O)C(=O)N[C@@H](CCC(=O)O)C(=O)N[C@H](C(=O)N[C@@H](CC(N)=O)C(=O)N[C@H](C(=O)O)[C@@H](C)O)[C@@H](C)CC)[C@@H](C)CC` [Peptide 3563.0025], the concentration for half-maximal inhibition (IC50) at DQB1*05:01 stood at 13 nM; at DPB1*14:01, 13700 nM.

Consider `CC[C@H](C)[C@H](NC(=O)[C@H](CCC(=O)O)NC(=O)[C@@H](N)CC(=O)O)C(=O)N[C@@H](CC(N)=O)C(=O)N[C@H](C(=O)N[C@H](C(=O)N[C@@H](Cc1ccccc1)C(=O)N[C@@H](CO)C(=O)N[C@@H](CC(=O)O)C(=O)N[C@@H](Cc1ccc(O)cc1)C(=O)N[C@H](C(=O)N1CCC[C@H]1C(=O)N[C@@H](Cc1ccc(O)cc1)C(=O)N[C@H](C(=O)N[C@@H](Cc1ccccc1)C(=O)O)C(C)C)[C@@H](C)CC)[C@@H](C)CC)[C@@H](C)O` [Peptide 3563.0026], for which the IC50 on DQB1*06:02 was found to be 4550 nM; at DPB1*14:01, 15200 nM; at DPB1*05:01, 6900 nM.

Take `CC[C@H](C)[C@H](NC(=O)[C@H](Cc1ccc(O)cc1)NC(=O)[C@H](CCC(N)=O)NC(=O)[C@H](Cc1c[nH]cn1)NC(=O)[C@@H](NC(=O)[C@@H](N)CCC(N)=O)[C@@H](C)CC)C(=O)N[C@@H](CCSC)C(=O)N[C@@H](C)C(=O)N[C@@H](CC(C)C)C(=O)N[C@@H](CCCNC(=N)N)C(=O)N[C@@H](CCC(=O)O)C(=O)N[C@@H](CCC(=O)O)C(=O)N[C@@H](Cc1ccc(O)cc1)C(=O)N[C@@H](Cc1ccccc1)C(=O)N[C@@H](CC(=O)O)C(=O)O` [Peptide 3563.0027]: the IC50 at DQB1*06:02 amounted to 897 nM; at DPB1*04:01, 817 nM; at DPB1*02:01, 80 nM; at DPB1*04:02, 51 nM; at DPB1*14:01, 1820 nM; at DPB1*05:01 it was 122 nM.

In the case of `CC[C@H](C)[C@H](N)C(=O)N[C@@H](CC(=O)O)C(=O)N[C@@H](CC(C)C)C(=O)N[C@@H](CO)C(=O)N[C@H](C(=O)N[C@@H](CCC(N)=O)C(=O)N[C@@H](CC(N)=O)C(=O)N[C@@H](Cc1ccc(O)cc1)C(=O)N[C@@H](Cc1c[nH]cn1)C(=O)N[C@H](C(=O)N[C@@H](Cc1ccccc1)C(=O)N[C@@H](CC(C)C)C(=O)N[C@H](C(=O)N[C@@H](Cc1ccc(O)cc1)C(=O)N[C@H](C(=O)O)[C@@H](C)CC)[C@@H](C)CC)[C@@H](C)O)[C@@H](C)CC` [Peptide 3563.0029], the half-maximal inhibitory concentration (IC50) came to 25000 nM at DPB1*04:01, 23200 nM on DPB1*02:01, 15600 nM on DPB1*04:02 and 9160 nM at DPB1*05:01.

As for LSQLTYMIQFDQYI [Peptide 3563.0012], the IC50 on DQB1*05:01 turned out to be 28 nM; on DQB1*06:02 it was 43100 nM; on DPB1*02:01 it was 576 nM; on DPB1*04:02, 622 nM; at DPB1*05:01, 4120 nM.

In the case of TLTAFGFASADLLEI [Peptide 3563.0005], the IC50 on DQB1*05:01 was found to be 118 nM; on DPB1*04:02, 5.3 nM; at DPB1*14:01, 847 nM.
